# In publication PMC10732257 (Oncotarget, 2023):
# Key:
# [1] = Body weight change in MV-4-11 xenograft mice; format: in vivo, female BALB/c nude mice; settings: all GFH009 treatment groups; through Day 28
# Protocol: Figure 7 Effect of GFH009 on body weight change in MV-4-11 xenografts. Body weight change of MV-4-11 xenograft (Figure 6) are expressed as mean ± SEM. ^* […], ^** P < 0.01, ^**** P < 0.0001, two-way ANOVA with Dunnett’s multiple comparisons test analysis compared to the vehicle-treated (control) group.
# Animals dosed BIW were given treatments on 2 consecutive days. Weights were recorded for each mouse every day and tumor volumes assessed 3 times a week. Total treatment administration occurred across 3 consecutive weeks.
# Relative change in body weight (RCBW) was determined as RCBW (%) = (Bwi – BW0)/BW0 × 100, where Bwi is body weight of a given mouse on a given day, and BW0 is initial body weight on the day they were assigned to a treatment group.
# MV-4-11 cells = test: Western blot of CDK9-regulated signaling in cultured cells; format: cell-based, human; settings: 4-hour incubation
# Protocol: Figure 4 Effect of GFH009 on CDK9-dependent gene expression in cells. Western blot of MV-4-11 cells after exposure to different concentrations of GFH009 or Enitociclib for 4 hours was analyzed. A representative blot was shown from 3 independent experiments.
# The effect of GFH009 on CDK9-regulated signaling pathways in human hematological malignancy cell lines was assessed via western blot. Cultured MV-4-11 cells, derived from human blastic AML cells (ATCC), were incubated at 37°C and 5% CO2 for 4 hours at final concentrations of 1 μM, 0.3 μM, 0.1 μM, 0.03 μM, and 0.01 μM for both GFH009 and enitociclib. Protein isolates were collected from pelleted cells as previously described, semi-quantified via western blot and analyzed using Image Studio 5.0 (LI-COR Biosciences, Lincoln, NE, USA).
# CDK18/cyclin Y = target: T1, CDK18/cyclin Y (Homo sapiens, UniProt Q07002); test: CDK family off-target kinase activity (Eurofins); format: biochemical
# T1 construct: purchased Eurofins Pharma Discovery Services UK Ltd
# Protocol: (§1) GFH009 inhibition activity against the CDK9/cyclin T1 complex as well as off-target CDK family reactivity were assayed by Eurofins Pharma Discovery Services UK Ltd., (Dundee, UK). Determination of off-target inhibition of other kinases was conducted by DiscoverX LeadHunter Discovery Services (Freemont, CA, USA.) GFH009 reactivity to GPCR family members was assayed by Wuxi AppTech (Shanghai, China).
# (§2) The pharmacodynamic and mechanistic foundation for the
# (§3) CDK9 inhibitor for the treatment of hematologic malignancies
# (§4) Supplementary Table 1: Inhibitory action of GFH009 on other CDK family members
# (§5) Various CDK/ Remaining enzymatic activity (%) after
# (§6) cognate cyclin pairs tested exposure to GFH009 at a concentration of Selectivity vs. CDK9
# (§7) (also on this page, place not known: www.oncotarget.com Oncotarget, Materials Supplementary)
# (§8) (1 picture or pasted object on this page, not shown here)
# CDK1/cyclin B = target: T2, CDK1/cyclin B (Homo sapiens, UniProt P06493); test: CDK family off-target kinase activity (Eurofins); format: biochemical
# T2 construct: purchased Eurofins Pharma Discovery Services UK Ltd
# Protocol: as §1, §2, §3, §4, §5, §6, §7, §8
# CDK4/cyclin D3 = target: T3, CDK4/cyclin D3 (Homo sapiens, UniProt P11802); test: CDK family off-target kinase activity (Eurofins); format: biochemical
# T3 construct: purchased Eurofins Pharma Discovery Services UK Ltd
# T3 sequence (P11802 whole entry): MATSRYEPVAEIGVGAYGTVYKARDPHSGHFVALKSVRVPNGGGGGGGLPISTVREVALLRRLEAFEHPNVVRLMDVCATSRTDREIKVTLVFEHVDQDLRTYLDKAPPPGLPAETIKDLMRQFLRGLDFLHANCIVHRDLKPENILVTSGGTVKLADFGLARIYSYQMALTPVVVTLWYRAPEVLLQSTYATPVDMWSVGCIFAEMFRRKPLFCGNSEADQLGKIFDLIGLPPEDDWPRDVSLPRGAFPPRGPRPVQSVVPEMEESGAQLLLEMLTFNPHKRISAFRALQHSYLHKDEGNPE
# T3 sequence (P30281 whole entry partner): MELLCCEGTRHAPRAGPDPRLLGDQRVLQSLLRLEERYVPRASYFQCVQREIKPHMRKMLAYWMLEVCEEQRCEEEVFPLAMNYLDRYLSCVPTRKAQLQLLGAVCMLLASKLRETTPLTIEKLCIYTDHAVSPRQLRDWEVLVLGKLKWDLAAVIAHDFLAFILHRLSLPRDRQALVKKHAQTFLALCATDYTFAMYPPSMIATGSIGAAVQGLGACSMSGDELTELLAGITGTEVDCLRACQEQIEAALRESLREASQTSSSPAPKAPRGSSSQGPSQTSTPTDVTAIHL
# Protocol: as §1, §2, §3, §4, §5, §6, §7, §8
# CDK2/cyclin A = target: T4, CDK2/cyclin A (Homo sapiens, UniProt P24941); test: CDK family off-target kinase activity (Eurofins); format: biochemical
# T4 construct: purchased Eurofins Pharma Discovery Services UK Ltd
# Protocol: as §1, §2, §3, §4, §5, §6, §7, §8
# CDK5/p35 = target: T5, CDK5/p35 (Homo sapiens, UniProt Q00535); test: CDK family off-target kinase activity (Eurofins); format: biochemical
# T5 construct: purchased Eurofins Pharma Discovery Services UK Ltd
# Protocol: as §1, §2, §3, §4, §5, §6, §7, §8
# CDK16/cyclin Y = target: T6, CDK16/cyclin Y (Homo sapiens, UniProt Q00536); test: CDK family off-target kinase activity (Eurofins); format: biochemical
# T6 construct: purchased Eurofins Pharma Discovery Services UK Ltd
# Protocol: as §1, §2, §3, §4, §5, §6, §7, §8
# CDK2/cyclin E = target: T7, CDK2/cyclin E (Homo sapiens, UniProt P24941); test: CDK family off-target kinase activity (Eurofins); format: biochemical
# T7 construct: purchased Eurofins Pharma Discovery Services UK Ltd
# Protocol: as §1, §2, §3, §4, §5, §6, §7, §8
# CDK17/cyclin Y = target: T8, CDK17/cyclin Y (Homo sapiens, UniProt Q00537); test: CDK family off-target kinase activity (Eurofins); format: biochemical
# T8 construct: purchased Eurofins Pharma Discovery Services UK Ltd
# T8 sequence (Q00537 whole entry): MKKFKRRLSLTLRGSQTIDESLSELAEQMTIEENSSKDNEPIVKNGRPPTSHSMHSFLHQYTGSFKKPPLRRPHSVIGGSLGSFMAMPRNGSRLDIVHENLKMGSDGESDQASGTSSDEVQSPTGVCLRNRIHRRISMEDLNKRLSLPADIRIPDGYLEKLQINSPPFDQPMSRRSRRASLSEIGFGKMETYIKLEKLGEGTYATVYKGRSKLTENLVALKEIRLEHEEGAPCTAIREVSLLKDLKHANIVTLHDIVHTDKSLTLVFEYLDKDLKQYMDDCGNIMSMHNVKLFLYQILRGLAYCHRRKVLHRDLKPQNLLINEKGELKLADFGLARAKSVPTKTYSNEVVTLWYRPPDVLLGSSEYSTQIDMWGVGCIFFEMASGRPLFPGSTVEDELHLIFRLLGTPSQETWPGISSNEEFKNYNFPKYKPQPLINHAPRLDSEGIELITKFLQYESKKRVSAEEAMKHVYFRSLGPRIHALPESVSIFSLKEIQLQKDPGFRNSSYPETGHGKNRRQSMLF
# T8 sequence (Q8ND76 whole entry partner): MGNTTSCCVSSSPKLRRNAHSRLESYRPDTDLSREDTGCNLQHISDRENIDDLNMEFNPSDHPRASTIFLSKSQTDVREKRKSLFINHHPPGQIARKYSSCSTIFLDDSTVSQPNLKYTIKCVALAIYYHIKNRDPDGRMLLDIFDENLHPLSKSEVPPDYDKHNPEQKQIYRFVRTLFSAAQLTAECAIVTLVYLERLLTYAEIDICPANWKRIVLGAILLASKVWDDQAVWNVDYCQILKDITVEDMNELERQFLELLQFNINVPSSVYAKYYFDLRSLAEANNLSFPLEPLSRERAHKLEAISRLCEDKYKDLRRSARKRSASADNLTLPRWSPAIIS
# Protocol: as §1, §2, §3, §4, §5, §6, §7, §8
# CDK5/p25 = target: T9, CDK5/p25 (Homo sapiens, UniProt Q00535); test: CDK family off-target kinase activity (Eurofins); format: biochemical
# T9 construct: purchased Eurofins Pharma Discovery Services UK Ltd
# Protocol: as §1, §2, §3, §4, §5, §6, §7, §8
# CDK7/cyclin H/MAT1 = target: T10, CDK7/cyclin H/MAT1 (Homo sapiens, UniProt P50613); test: CDK family off-target kinase activity (Eurofins); format: biochemical
# T10 construct: purchased Eurofins Pharma Discovery Services UK Ltd
# T10 sequence (P50613 whole entry): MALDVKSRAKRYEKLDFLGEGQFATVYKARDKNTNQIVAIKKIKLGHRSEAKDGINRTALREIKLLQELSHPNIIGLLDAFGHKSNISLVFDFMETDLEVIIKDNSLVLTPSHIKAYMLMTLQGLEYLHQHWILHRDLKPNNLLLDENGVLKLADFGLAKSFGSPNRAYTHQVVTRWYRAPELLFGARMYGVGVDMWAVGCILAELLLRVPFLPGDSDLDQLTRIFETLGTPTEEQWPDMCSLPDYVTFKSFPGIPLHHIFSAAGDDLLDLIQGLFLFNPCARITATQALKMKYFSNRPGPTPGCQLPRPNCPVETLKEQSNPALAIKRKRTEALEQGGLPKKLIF
# T10 sequence (P51946 whole entry partner): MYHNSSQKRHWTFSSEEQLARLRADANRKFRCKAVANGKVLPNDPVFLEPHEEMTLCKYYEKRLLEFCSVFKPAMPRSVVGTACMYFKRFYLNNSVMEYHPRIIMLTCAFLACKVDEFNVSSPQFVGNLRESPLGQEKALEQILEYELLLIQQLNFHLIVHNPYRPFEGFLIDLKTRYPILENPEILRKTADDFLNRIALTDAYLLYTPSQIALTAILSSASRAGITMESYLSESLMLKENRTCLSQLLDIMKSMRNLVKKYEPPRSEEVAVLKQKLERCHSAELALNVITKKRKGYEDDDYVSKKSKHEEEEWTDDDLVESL
# T10 sequence (P51948 whole entry partner): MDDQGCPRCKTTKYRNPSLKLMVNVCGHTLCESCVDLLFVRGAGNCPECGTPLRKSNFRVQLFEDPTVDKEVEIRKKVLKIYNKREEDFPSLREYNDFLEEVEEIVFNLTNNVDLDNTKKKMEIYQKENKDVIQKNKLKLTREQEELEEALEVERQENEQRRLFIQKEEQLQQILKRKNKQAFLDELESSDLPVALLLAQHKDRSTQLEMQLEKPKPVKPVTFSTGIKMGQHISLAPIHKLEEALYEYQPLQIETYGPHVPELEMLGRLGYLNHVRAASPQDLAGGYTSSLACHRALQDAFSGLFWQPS
# Protocol: as §1, §2, §3, §4, §5, §6, §7, §8
# CDK6/cyclin D3 = target: T11, CDK6/cyclin D3 (Homo sapiens, UniProt Q00534); test: CDK family off-target kinase activity (Eurofins); format: biochemical
# T11 construct: purchased Eurofins Pharma Discovery Services UK Ltd
# T11 sequence (Q00534 whole entry): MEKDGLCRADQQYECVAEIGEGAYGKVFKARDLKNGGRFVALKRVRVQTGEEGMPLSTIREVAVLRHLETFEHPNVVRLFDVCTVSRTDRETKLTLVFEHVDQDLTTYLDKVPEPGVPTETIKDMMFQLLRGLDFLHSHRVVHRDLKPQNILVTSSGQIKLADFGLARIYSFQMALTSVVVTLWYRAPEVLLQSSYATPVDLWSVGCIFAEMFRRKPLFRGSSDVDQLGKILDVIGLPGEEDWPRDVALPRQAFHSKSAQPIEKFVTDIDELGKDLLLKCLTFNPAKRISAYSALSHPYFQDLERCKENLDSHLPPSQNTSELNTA
# T11 sequence (P30281 whole entry partner): as the sequence (P30281 whole entry partner) above
# Protocol: as §1, §2, §3, §4, §5, §6, §7, §8
# Cdc7/cyclinB1 = target: T12, Cdc7/cyclinB1 (Homo sapiens, UniProt O00311); test: CDK family off-target kinase activity (Eurofins); format: biochemical
# T12 construct: purchased Eurofins Pharma Discovery Services UK Ltd
# Protocol: as §1, §2, §3, §4, §5, §6, §7, §8
# CDK14/cyclin Y = target: T13, CDK14/cyclin Y (Homo sapiens, UniProt O94921); test: CDK family off-target kinase activity (Eurofins); format: biochemical
# T13 construct: purchased Eurofins Pharma Discovery Services UK Ltd
# Protocol: as §1, §2, §3, §4, §5, §6, §7, §8
# CDK3/cyclin E = target: T14, CDK3/cyclin E (Homo sapiens, UniProt Q00526); test: CDK family off-target kinase activity (Eurofins); format: biochemical
# T14 construct: purchased Eurofins Pharma Discovery Services UK Ltd
# Protocol: as §1, §2, §3, §4, §5, §6, §7, §8
# CDK12/cyclin K = target: T15, CDK12/cyclin K (Homo sapiens, UniProt Q9NYV4); test: CDK family off-target kinase activity (Eurofins); format: biochemical
# T15 construct: purchased Eurofins Pharma Discovery Services UK Ltd
# T15 sequence (Q9NYV4 whole entry): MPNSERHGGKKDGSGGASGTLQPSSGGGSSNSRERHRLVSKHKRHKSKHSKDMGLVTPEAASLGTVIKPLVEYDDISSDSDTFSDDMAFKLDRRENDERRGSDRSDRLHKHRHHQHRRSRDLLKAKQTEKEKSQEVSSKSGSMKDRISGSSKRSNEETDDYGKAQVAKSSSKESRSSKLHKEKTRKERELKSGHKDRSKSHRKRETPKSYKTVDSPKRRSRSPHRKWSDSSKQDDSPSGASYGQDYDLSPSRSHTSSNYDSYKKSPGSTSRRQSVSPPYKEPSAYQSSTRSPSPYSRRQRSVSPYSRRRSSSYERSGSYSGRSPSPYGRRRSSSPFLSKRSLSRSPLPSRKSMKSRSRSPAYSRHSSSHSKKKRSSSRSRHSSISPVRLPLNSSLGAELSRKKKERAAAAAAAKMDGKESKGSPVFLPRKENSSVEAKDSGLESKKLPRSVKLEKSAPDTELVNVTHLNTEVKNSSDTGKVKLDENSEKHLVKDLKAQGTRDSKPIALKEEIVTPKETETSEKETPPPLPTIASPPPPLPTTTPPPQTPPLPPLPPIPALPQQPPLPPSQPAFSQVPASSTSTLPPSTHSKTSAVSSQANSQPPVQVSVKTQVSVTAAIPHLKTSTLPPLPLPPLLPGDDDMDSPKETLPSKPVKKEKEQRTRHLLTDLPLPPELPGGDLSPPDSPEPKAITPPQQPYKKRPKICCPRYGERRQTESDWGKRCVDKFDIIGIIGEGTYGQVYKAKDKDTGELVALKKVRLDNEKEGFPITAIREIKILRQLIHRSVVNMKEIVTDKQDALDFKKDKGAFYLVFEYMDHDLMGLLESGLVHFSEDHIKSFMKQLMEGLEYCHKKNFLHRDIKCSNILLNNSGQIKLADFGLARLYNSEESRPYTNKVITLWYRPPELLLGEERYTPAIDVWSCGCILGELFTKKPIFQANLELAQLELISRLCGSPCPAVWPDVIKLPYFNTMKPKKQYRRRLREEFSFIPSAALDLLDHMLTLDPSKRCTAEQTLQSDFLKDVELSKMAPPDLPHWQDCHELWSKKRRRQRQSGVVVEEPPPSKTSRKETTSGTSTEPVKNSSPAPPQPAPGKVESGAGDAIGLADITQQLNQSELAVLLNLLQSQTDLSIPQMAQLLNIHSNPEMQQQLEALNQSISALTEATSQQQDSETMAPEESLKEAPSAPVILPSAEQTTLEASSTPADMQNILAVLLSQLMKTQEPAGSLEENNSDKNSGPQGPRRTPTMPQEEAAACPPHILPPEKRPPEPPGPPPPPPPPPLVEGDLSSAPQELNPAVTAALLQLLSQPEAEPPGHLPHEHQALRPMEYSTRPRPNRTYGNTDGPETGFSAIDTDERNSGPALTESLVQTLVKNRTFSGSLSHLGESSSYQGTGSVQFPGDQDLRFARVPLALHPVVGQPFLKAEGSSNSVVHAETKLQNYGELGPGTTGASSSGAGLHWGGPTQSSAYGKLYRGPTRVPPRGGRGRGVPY
# T15 sequence (O75909 whole entry partner): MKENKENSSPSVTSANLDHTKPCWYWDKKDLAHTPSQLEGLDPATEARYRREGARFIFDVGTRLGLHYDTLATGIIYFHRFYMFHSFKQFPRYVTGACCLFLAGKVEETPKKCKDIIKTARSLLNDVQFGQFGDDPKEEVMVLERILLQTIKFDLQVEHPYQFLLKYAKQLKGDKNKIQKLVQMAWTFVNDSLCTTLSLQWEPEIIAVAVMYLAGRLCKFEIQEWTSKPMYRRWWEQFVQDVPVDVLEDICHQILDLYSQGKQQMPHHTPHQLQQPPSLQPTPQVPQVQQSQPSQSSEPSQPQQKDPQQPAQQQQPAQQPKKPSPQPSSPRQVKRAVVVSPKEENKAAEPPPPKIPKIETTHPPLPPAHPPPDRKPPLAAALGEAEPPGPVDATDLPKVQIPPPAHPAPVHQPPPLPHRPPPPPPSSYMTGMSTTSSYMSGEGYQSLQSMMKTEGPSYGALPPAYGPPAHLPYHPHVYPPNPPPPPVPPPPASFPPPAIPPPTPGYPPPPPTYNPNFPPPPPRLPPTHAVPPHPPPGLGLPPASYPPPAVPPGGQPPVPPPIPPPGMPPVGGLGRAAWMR
# Protocol: as §1, §2, §3, §4, §5, §6, §7, §8
# M1 (muscarinic Ach) = M1 (muscarinic Ach) (Homo sapiens, UniProt P11229); test: GPCR competitive antagonist (off-target inhibitory action) testing; format: cell-based
# Text: Supplementary Table 3: Results of off-target inhibitory action testing of GFH009 administered at
# Competitive antagonist activity against GPCR type shown below
# Target % Inhibitory Effect @ Max Dose
# M1 (muscarinic Ach) 98.78
# M2 (muscarinic Ach) 95.69
# M3 (muscarinic Ach) 99.12
smiles,measurement,setting,value
COC[C@@H](C)NC1CCC(Nc2cc(-c3csc(NCC4(C#N)CCOCC4)n3)c(Cl)cn2)CC1 (stereo partly drawn) [GFH009],Relative change in body mass (RCBW%) vs initial,[1],≤ 5%
same,Expression levels of MCL-1 and c-Myc,"MV-4-11 cells; 0.01-1 μM, western blot",dose-dependently decreased
same,Expression level of phospho-Rpb1 CTD Ser2,"MV-4-11 cells; increasing concentration, western blot",gradually decreased
same,Expression levels of phospho-Rpb1 CTD Ser5 and total Rpb1,MV-4-11 cells; vs DMSO-only control,not significantly different
same,Concentration inducing cleavage of caspase-3 and PARP,MV-4-11 cells; western blot,greater than 0.1 μM
same,Selectivity vs. CDK9,CDK18/cyclin Y,> 100
same,Remaining enzymatic activity (%) after exposure to GFH009,CDK18/cyclin Y; 1 µM,53%
same,Remaining enzymatic activity (%) after exposure to GFH009,CDK18/cyclin Y; 10 µM,12%
same,Selectivity vs. CDK9,CDK1/cyclin B,> 1000
same,Remaining enzymatic activity (%) after exposure to GFH009,CDK1/cyclin B; 1 µM,97%
same,Remaining enzymatic activity (%) after exposure to GFH009,CDK1/cyclin B; 10 µM,50%
same,Selectivity vs. CDK9,CDK4/cyclin D3,> 100
same,Remaining enzymatic activity (%) after exposure to GFH009,CDK4/cyclin D3; 1 µM,70%
same,Remaining enzymatic activity (%) after exposure to GFH009,CDK4/cyclin D3; 10 µM,41%
same,Selectivity vs. CDK9,CDK2/cyclin A,> 1000
same,Remaining enzymatic activity (%) after exposure to GFH009,CDK2/cyclin A; 1 µM,80%
same,Remaining enzymatic activity (%) after exposure to GFH009,CDK2/cyclin A; 10 µM,51%
same,Selectivity vs. CDK9,CDK5/p35,> 100
same,Remaining enzymatic activity (%) after exposure to GFH009,CDK5/p35; 1 µM,66%
same,Remaining enzymatic activity (%) after exposure to GFH009,CDK5/p35; 10 µM,43%
same,Selectivity vs. CDK9,CDK16/cyclin Y,< 100
same,Remaining enzymatic activity (%) after exposure to GFH009,CDK16/cyclin Y; 1 µM,23%
same,Remaining enzymatic activity (%) after exposure to GFH009,CDK16/cyclin Y; 10 µM,5%
same,Selectivity vs. CDK9,CDK2/cyclin E,> 100
same,Remaining enzymatic activity (%) after exposure to GFH009,CDK2/cyclin E; 1 µM,63%
same,Remaining enzymatic activity (%) after exposure to GFH009,CDK2/cyclin E; 10 µM,27%
same,Selectivity vs. CDK9,CDK17/cyclin Y,< 100
same,Remaining enzymatic activity (%) after exposure to GFH009,CDK17/cyclin Y; 1 µM,30%
same,Remaining enzymatic activity (%) after exposure to GFH009,CDK17/cyclin Y; 10 µM,7%
same,Selectivity vs. CDK9,CDK5/p25,> 100
same,Remaining enzymatic activity (%) after exposure to GFH009,CDK5/p25; 1 µM,79%
same,Remaining enzymatic activity (%) after exposure to GFH009,CDK5/p25; 10 µM,43%
same,Selectivity vs. CDK9,CDK7/cyclin H/MAT1,> 100
same,Remaining enzymatic activity (%) after exposure to GFH009,CDK7/cyclin H/MAT1; 1 µM,67%
same,Remaining enzymatic activity (%) after exposure to GFH009,CDK7/cyclin H/MAT1; 10 µM,19%
same,Selectivity vs. CDK9,CDK6/cyclin D3,> 1000
same,Remaining enzymatic activity (%) after exposure to GFH009,CDK6/cyclin D3; 1 µM,85%
same,Remaining enzymatic activity (%) after exposure to GFH009,CDK6/cyclin D3; 10 µM,58%
same,Selectivity vs. CDK9,Cdc7/cyclinB1,> 100
same,Remaining enzymatic activity (%) after exposure to GFH009,Cdc7/cyclinB1; 1 µM,75%
same,Remaining enzymatic activity (%) after exposure to GFH009,Cdc7/cyclinB1; 10 µM,47%
same,Selectivity vs. CDK9,CDK14/cyclin Y,> 100
same,Remaining enzymatic activity (%) after exposure to GFH009,CDK14/cyclin Y; 1 µM,70%
same,Remaining enzymatic activity (%) after exposure to GFH009,CDK14/cyclin Y; 10 µM,39%
same,Selectivity vs. CDK9,CDK3/cyclin E,> 100
same,Remaining enzymatic activity (%) after exposure to GFH009,CDK3/cyclin E; 1 µM,74%
same,Remaining enzymatic activity (%) after exposure to GFH009,CDK3/cyclin E; 10 µM,39%
same,Selectivity vs. CDK9,CDK12/cyclin K,> 1000
same,Remaining enzymatic activity (%) after exposure to GFH009,CDK12/cyclin K; 1 µM,94%
same,Remaining enzymatic activity (%) after exposure to GFH009,CDK12/cyclin K; 10 µM,86%
same,% Inhibitory Effect @ Max Dose (10 µM),M1 (muscarinic Ach),98.78%
